The data set in a line: activity coefficient (dimensionless); of the first substance listed, at infinite dilution; xn = mol fraction of the nth substance listed. The note with it: 101.33 kPa, Liquid, Chromatography, x1 = 0.

Numbers after ± are expanded uncertainties.

Take `CCCCC` [pentane] + CCCCCCn1cc[n+](C)c1C.F[B-](F)(F)F: the activity coefficient was found to be 28.9 ± 3 (313.15 K); 25.6 ± 2.7 (323.15 K); 22.9 ± 2.4 (333.15 K); 20.6 ± 2.2 (343.15 K); 18.8 ± 2 (353.15 K).

Take `Cc1cccc(C)c1` [1,3-dimethylbenzene] + CCCCCCn1cc[n+](C)c1C.F[B-](F)(F)F: the activity coefficient stood at 3.37 ± 0.35 (313.15 K); 3.46 ± 0.36 (323.15 K); 3.59 ± 0.38 (333.15 K); 3.67 ± 0.39 (343.15 K); 3.79 ± 0.4 (353.15 K).

Take `CCCO` [propan-1-ol] + CCCCCCn1cc[n+](C)c1C.F[B-](F)(F)F: the activity coefficient came to 1.74 ± 0.18 (313.15 K); 1.65 ± 0.17 (323.15 K); 1.53 ± 0.16 (333.15 K); 1.43 ± 0.15 (343.15 K); 1.33 ± 0.14 (353.15 K).

Regarding `C1CCCCC1` [cyclohexane] + CCCCCCn1cc[n+](C)c1C.F[B-](F)(F)F, the activity coefficient (313.15 K) stood at 19.8 ± 2.1; the activity coefficient (323.15 K) was 19.6 ± 2.1; the activity coefficient (333.15 K) was 19.5 ± 2; the activity coefficient (343.15 K) was 19.1 ± 2; the activity coefficient (353.15 K) came to 18.9 ± 2.

Take `ClC(Cl)Cl` [trichloromethane] + CCCCCCn1cc[n+](C)c1C.F[B-](F)(F)F: the activity coefficient reads like this: (313.15 K) 0.68 ± 0.07; (323.15 K) 0.72 ± 0.08; (333.15 K) 0.77 ± 0.08; (343.15 K) 0.82 ± 0.08; (353.15 K) 0.87 ± 0.09.

`CC#N` [acetonitrile] + CCCCCCn1cc[n+](C)c1C.F[B-](F)(F)F: the activity coefficient is, setting by setting: (313.15 K) 0.52 ± 0.06; (323.15 K) 0.54 ± 0.06; (333.15 K) 0.56 ± 0.06; (343.15 K) 0.57 ± 0.06; (353.15 K) 0.58 ± 0.06.

In the case of `CCCCCCCCC` [nonane] + CCCCCCn1cc[n+](C)c1C.F[B-](F)(F)F, the activity coefficient is, setting by setting: (313.15 K) 89.5 ± 9.4; (323.15 K) 83.5 ± 8.8; (333.15 K) 77.8 ± 8.2; (343.15 K) 72.6 ± 7.7; (353.15 K) 67.4 ± 7.1.

Turning to `CC(C)=O` [acetone] + CCCCCCn1cc[n+](C)c1C.F[B-](F)(F)F, the activity coefficient came to 0.84 ± 0.09 (313.15 K); 0.87 ± 0.09 (323.15 K); 0.9 ± 0.09 (333.15 K); 0.93 ± 0.09 (343.15 K); 0.96 ± 0.1 (353.15 K).

As for `CCO` [ethanol] + CCCCCCn1cc[n+](C)c1C.F[B-](F)(F)F, the activity coefficient (313.15 K) turned out to be 1.4 ± 0.14; the activity coefficient (323.15 K) was found to be 1.31 ± 0.13; the activity coefficient (333.15 K) was determined as 1.23 ± 0.13; the activity coefficient (343.15 K) is 1.16 ± 0.12; the activity coefficient (353.15 K) was determined as 1.09 ± 0.11.

As for `Cc1ccc(C)cc1` [1,4-dimethylbenzene] + CCCCCCn1cc[n+](C)c1C.F[B-](F)(F)F, the activity coefficient runs as follows: (313.15 K) 2.84 ± 0.3; (323.15 K) 3.05 ± 0.32; (333.15 K) 3.29 ± 0.35; (343.15 K) 3.51 ± 0.37; (353.15 K) 3.76 ± 0.4.

Consider `CCC(C)O` (stereo not given) [butan-2-ol] + CCCCCCn1cc[n+](C)c1C.F[B-](F)(F)F, for which the activity coefficient by setting is: (313.15 K) 2.65 ± 0.28; (323.15 K) 2.56 ± 0.27; (333.15 K) 2.48 ± 0.26; (343.15 K) 2.38 ± 0.25; (353.15 K) 2.28 ± 0.24.

Take `Cc1ccccc1C` [1,2-dimethylbenzene] + CCCCCCn1cc[n+](C)c1C.F[B-](F)(F)F: the activity coefficient (313.15 K) is 2.38 ± 0.25; the activity coefficient (323.15 K) was found to be 2.57 ± 0.27; the activity coefficient (333.15 K) worked out at 2.76 ± 0.29; the activity coefficient (343.15 K) came to 2.97 ± 0.31; the activity coefficient (353.15 K) worked out at 3.16 ± 0.33.

Take `CC(C)CC(C)(C)C` [2,2,4-trimethylpentane] + CCCCCCn1cc[n+](C)c1C.F[B-](F)(F)F: the activity coefficient reads like this: (313.15 K) 59.2 ± 6.2; (323.15 K) 59 ± 6.2; (333.15 K) 58.2 ± 6.1; (343.15 K) 57.5 ± 6.1; (353.15 K) 57.2 ± 6.

Consider `CC(C)CO` [2-methyl-1-propanol] + CCCCCCn1cc[n+](C)c1C.F[B-](F)(F)F, for which the activity coefficient by setting is: (313.15 K) 2.28 ± 0.24; (323.15 K) 2.15 ± 0.23; (333.15 K) 2.01 ± 0.21; (343.15 K) 1.9 ± 0.2; (353.15 K) 1.85 ± 0.19.

`CCCCO` [butan-1-ol] + CCCCCCn1cc[n+](C)c1C.F[B-](F)(F)F: the activity coefficient reads like this: (313.15 K) 2.77 ± 0.29; (323.15 K) 2.67 ± 0.28; (333.15 K) 2.5 ± 0.3; (343.15 K) 2.37 ± 0.25; (353.15 K) 2.27 ± 0.24.

With `c1ccccc1` [benzene] + CCCCCCn1cc[n+](C)c1C.F[B-](F)(F)F, the activity coefficient was 1.54 ± 0.16 (313.15 K); 1.55 ± 0.16 (323.15 K); 1.57 ± 0.16 (333.15 K); 1.58 ± 0.16 (343.15 K); 1.59 ± 0.17 (353.15 K).

`CCCCCCCCCC` [decane] + CCCCCCn1cc[n+](C)c1C.F[B-](F)(F)F: the activity coefficient by setting is: (313.15 K) 125 ± 13; (323.15 K) 121 ± 13; (333.15 K) 112 ± 12; (343.15 K) 102 ± 11; (353.15 K) 92 ± 9.7.

As for `ClC(Cl)(Cl)Cl` [tetrachloromethane] + CCCCCCn1cc[n+](C)c1C.F[B-](F)(F)F, the activity coefficient amounted to 3.5 ± 0.37 (313.15 K); 3.61 ± 0.38 (323.15 K); 3.7 ± 0.4 (333.15 K); 3.72 ± 0.39 (343.15 K); 3.86 ± 0.41 (353.15 K).

With `CCCCCCC` [heptane] + CCCCCCn1cc[n+](C)c1C.F[B-](F)(F)F, the activity coefficient runs as follows: (313.15 K) 47.9 ± 5; (323.15 K) 45.4 ± 4.8; (333.15 K) 42.8 ± 4.5; (343.15 K) 40.2 ± 4.2; (353.15 K) 37.4 ± 3.9.

Take `CC1CCCCC1` [methylcyclohexane] + CCCCCCn1cc[n+](C)c1C.F[B-](F)(F)F: the activity coefficient is, setting by setting: (313.15 K) 25.4 ± 2.7; (323.15 K) 25.4 ± 2.7; (333.15 K) 24.9 ± 2.6; (343.15 K) 24.5 ± 2.6; (353.15 K) 23.9 ± 2.5.

In the case of `CO` [methanol] + CCCCCCn1cc[n+](C)c1C.F[B-](F)(F)F, the activity coefficient turned out to be 0.96 ± 0.1 (313.15 K); 0.91 ± 0.09 (323.15 K); 0.86 ± 0.09 (333.15 K); 0.82 ± 0.08 (343.15 K); 0.78 ± 0.08 (353.15 K).

`ClCCl` [dichloromethane] + CCCCCCn1cc[n+](C)c1C.F[B-](F)(F)F: the activity coefficient reads like this: (313.15 K) 0.7 ± 0.07; (323.15 K) 0.74 ± 0.08; (333.15 K) 0.8 ± 0.08; (343.15 K) 0.87 ± 0.09; (353.15 K) 0.93 ± 0.09.

Consider `CCCCCCCC` [octane] + CCCCCCn1cc[n+](C)c1C.F[B-](F)(F)F, for which the activity coefficient by setting is: (313.15 K) 65.1 ± 6.8; (323.15 K) 64.1 ± 6.8; (333.15 K) 62.1 ± 6.5; (343.15 K) 61.2 ± 6.4; (353.15 K) 60.4 ± 6.4.

As for `CCOC(C)=O` [ethyl acetate] + CCCCCCn1cc[n+](C)c1C.F[B-](F)(F)F, the activity coefficient is, setting by setting: (313.15 K) 2.01 ± 0.21; (323.15 K) 2.12 ± 0.22; (333.15 K) 2.16 ± 0.23; (343.15 K) 2.21 ± 0.23; (353.15 K) 2.26 ± 0.24.

With `CC(C)O` [propan-2-ol] + CCCCCCn1cc[n+](C)c1C.F[B-](F)(F)F, the activity coefficient (313.15 K) is 1.75 ± 0.18; the activity coefficient (323.15 K) is 1.67 ± 0.17; the activity coefficient (333.15 K) was determined as 1.58 ± 0.16; the activity coefficient (343.15 K) was found to be 1.46 ± 0.15; the activity coefficient (353.15 K) came to 1.39 ± 0.14.

With `C1CCOC1` [tetrahydrofuran] + CCCCCCn1cc[n+](C)c1C.F[B-](F)(F)F, the activity coefficient (313.15 K) was found to be 1.6 ± 0.17; the activity coefficient (323.15 K) amounted to 1.62 ± 0.17; the activity coefficient (333.15 K) turned out to be 1.63 ± 0.17; the activity coefficient (343.15 K) came to 1.65 ± 0.17; the activity coefficient (353.15 K) stood at 1.58 ± 0.16.

For the molecule `CCCCCC` [hexane] + CCCCCCn1cc[n+](C)c1C.F[B-](F)(F)F, the activity coefficient runs as follows: (313.15 K) 31 ± 3.3; (323.15 K) 29.5 ± 3.1; (333.15 K) 27.9 ± 2.9; (343.15 K) 26.3 ± 2.8; (353.15 K) 25 ± 2.6.

For the molecule `C1COCCO1` [1,4-dioxane] + CCCCCCn1cc[n+](C)c1C.F[B-](F)(F)F, the activity coefficient is, setting by setting: (313.15 K) 1.08 ± 0.11; (323.15 K) 1.09 ± 0.11; (333.15 K) 1.1 ± 0.11; (343.15 K) 1.12 ± 0.11; (353.15 K) 1.13 ± 0.12.

`Cc1ccccc1` [toluene] + CCCCCCn1cc[n+](C)c1C.F[B-](F)(F)F: the activity coefficient came out at 2.21 ± 0.23 (313.15 K); 2.26 ± 0.24 (323.15 K); 2.31 ± 0.24 (333.15 K); 2.35 ± 0.25 (343.15 K); 2.4 ± 0.25 (353.15 K).

Regarding `C1=CCCCC1` [cyclohexene] + CCCCCCn1cc[n+](C)c1C.F[B-](F)(F)F, the activity coefficient stood at 9.89 ± 1 (313.15 K); 9.67 ± 1 (323.15 K); 9.51 ± 1 (333.15 K); 9.36 ± 0.98 (343.15 K); 9.08 ± 0.95 (353.15 K).

As for `CCc1ccccc1` [ethylbenzene] + CCCCCCn1cc[n+](C)c1C.F[B-](F)(F)F, the activity coefficient runs as follows: (313.15 K) 3.81 ± 0.4; (323.15 K) 3.84 ± 0.4; (333.15 K) 3.88 ± 0.41; (343.15 K) 3.93 ± 0.41; (353.15 K) 3.95 ± 0.42.

These data come from the NIST ThermoML archive (doi:10.1016/j.jct.2018.05.017).
